Source: paper PMC5730604
Like-named read-outs stand apart in the source and are kept apart here. Each block holds one molecule with its values, some of them ahead of it. Positions of bridges follow the written chain, without caps; N, C: chain ends. Non-standard residues stand in square brackets, D forms with d. Residues, ends and D or L forms follow the SMILES beside them. Chains are numbered I, II in the order given. *: point of attachment. PEG28 = NCCOCCOCCOCCOCCOCCOCCOCCOCCOCCOCCOCCOCCOCCOCCOCCOCCOCCOCCOCCOCCOCCOCCOCCOCCOCCOCCOCCOCCC(=O)O; Tyr(3-NO2) = N[C@@H](Cc1ccc(O)c([N+](=O)[O-])c1)C(=O)O; Biotin = O=C1N[C@H]2[C@H](CS[C@H]2CCCCC(=O)*)N1; Hyp = O=C(O)[C@@H]1C[C@@H](O)CN1; For = O=C*

Key:
human granulocytes = experiment: Oxidative burst (dihydro-rhodamine oxidation) assay; type: cell-based; settings: compared with the non-PEGylated effector
Procedure: Activation of the oxidative burst (phagocyte NADPH oxidase) was measured using a
dihydrorhodamine (DHR, Molecular Probes) oxidation assay, based on a method described
previously1. In brief, 200 µl samples of human, murine or guinea pig leukocytes (1.25x 106
cells/ml in HHBS + 10 mM Hepes, pH 7.3, 0.3% BSA and 5 mM EDTA) were loaded with DHR
and catalase (Sigma-Aldrich) and cytochalasin B (Sigma-Aldrich) were added. Cells were pre-
incubated at 37°C for 10 min followed by the addition of 50 µl of effector dilutions (5x the
intended concentration) in the same buffer and another 15 min of incubation at 37°C. Phorbol
(§1) 12- m yr ist oyl 13-acetate (P MA , 3 µg/ml) was used as a positive control. All samples were f ixed
(§2) in 1% formaldehyde Hoechst 33258 solution (0.5 µg/ml) was added and cells were k ept on ice
(§3) until analysis using a FACS Canto system. After gating for live cells and granulocytes (human
(§4) cells) or non- lymphocytes (murine cells) in the FSC/SSC plot, rhodamine-positive cells were
(§5) identif ied in a PE/SSC plot, using an unstimulated sample as a reference.
(§6) Human monocytes, after an overnight pre- culture, were incubated f or 6 more hours in 1 ml
(§7) RPMI+10% FCS containing 100 nM F2- 2PEG, 0.1 ng/ml LPS (Sigma- Aldrich), or no stimulus.
(§8) All experiments were performed in duplicates. […]

mice = experiment: Immune activation assays (Figure S2C,D); type: cell-based, Mouse; settings: compared with human cells
Procedure: (§9) Human leukocytes were re-suspended in Hank ’s Buffered Saline Solution (HBSS, without
(§10) Ca2+, Mg 2+) with 10 mM Hepes pH 7.3 and 0.3% BSA at 10^7 cells/ml. Cells were pre-warmed
(§11) at 37°C for 20 min. After adding the effector dilutions in the lower compartment of 24-well plates
(§12) (800 µl/well), a Millicell culture plate insert with 5 µm pore size was placed in each well, f ollowed
(§13) by immediate addition of 200 µl (2 million) leuk ocytes. In one well, the cells were added without
(§14) a f ilter insert, allowing determination of the input number. The plate was incubated at 37°C and
(§15) 5% CO2 f or 45 min. 5 mM EDTA solution was added and the plate was incubated f or another
(§16) 10 min at 37 °C. […]
(§17) determined using a Neubauer chamber, or the numbers of transmigrated monocytes ,
(§18) granulocytes and lymphocytes were determined by flow cytometry (discriminating c e ll […]
(§19) 37°C and 5% CO2. Macrophages on the bottom side of the f ilter were counted. […]
(§20) J software, means and standard deviations were calculated and presented as absolute […]
(§21) Activation of the oxidative burst (phagocyte NADPH oxidase) was measured using a […]
(§22) 150 µl were stored at - 80 °C until cytokine levels were measured with commercially available
(§23) ELISA kits (Ready-set-go system, eBiosciences). […]
(§24) were measured and calculated based on the standards included wit hin the ELISA kits and as […]
(§25) analysis. Measured cytok ine levels were normalized to 1 (the average of the two unstimulated

human leukocytes = experiment: Chemotaxis assay; type: cell-based; settings: compared with the non-PEGylated effector
Procedure: as §9, §10, §11, §12, §13, §14, §15, §16
Phorbol
as §1, §2, §3, §4, §5, §6, §7, §8

guinea pigs = experiment: Immune activation assays (Figure S2C,D); type: cell-based, Guinea pig; settings: compared with human cells
Procedure: as §9, §10, §11, §12, §13, §14, §15, §16, §17, §18, §19, §20, §21, §22, §23, §24, §25

U-87MG = experiment: Flow cytometry binding to cells; set-up: key: ++: strong binding; +: m edium binding; +/-: weak or heterogeneous binding; -: no binding; settings: Table S1, human, 1 µM biotinylated peptide, 2 mM MnCl2, on ice
NIH-3T3 = settings: mouse, flow cytometry, 1 µM biotinylated peptide
Procedure: (§26) from DSMZ or LGC and cultured according to the distributors’ guidelines. Human, murine or
(§27) guinea pig leukocytes or macrophages were isolated and cultured as described below. Cells
(§28) growing in monolayers were detached using trypsin/EDTA and then re- suspended in complete
(§29) culture medium. After washing with washing buffer (W B: 0.9% NaCl, 10 mM Hepes, pH 7.3) at
(§30) 4°C, cells were re-suspended at 2x10^6 cells/ml in peptide blocking b uf f er ( PBB: 0.9% NaCl,
(§31) 10 m M H epes, pH 7.3, 5 m M KCl , 3% BSA, 5% FCS) and incubated for 10 minutes on ice
(§32) concentration in PBB were added to equal volumes of aliquots of 1x10^5 cells, and were
(§33) incubated f or 30 min on ice with repeated shaking to keep the cells in suspension. Except
(§34) three times wit h 1 ml W B, followed by incubation with streptavidin labeled wit h PerCP-Cy5.5
(§35) (BD Biosciences, 200 µg/ml; diluted 1:400 in PBB) for 15 min on ice. After one additional
(§36) wa s h ing step with phosphate- buffered saline (PBS) at 4°C, samples were re-suspended in
(§37) PBS with Hoechst 33258 solution (0.5 µg/ml) and analyzed using a F ACS Canto system ( at
least 1x10^4 cells per sample were counted). Evaluations were performed using FloJo software.
W hole cells were gated i n a FSC/SSC plot and live gating was based on Hoechst exclusion.
After gating out debris, aggregates and dead cells, overlay histograms in the PerCP-Cy5.5
indicated cases the geometrical mean f luorescence was recorded.
For determining binding affinity, a rang e of concentrations of the biotinylated compound was
tested and the f luorescent signals were plotted against concentration. The concentration at
which half-maximum binding intensity was reached (KD) was calculated using Origin 9.0
sof tware and a “one site specif ic binding” fit (y =(Bmax* x) /(KD+x) ).
f luorescent signals were plotted against competitor concentration. The concentration at which

HT-29 = experiment: Flow cytometry binding to cells; set-up: key: ++: strong binding; +: m edium binding; +/-: weak or heterogeneous binding; -: no binding; settings: Table S1, human, 1 µM biotinylated peptide, 2 mM MnCl2, on ice
primary granulocytes = experiment: Flow cytometry binding to cells; settings: 1 µM biotinylated peptide; further: key: ++: Strong binding; +: medium binding; +/−: weak binding; −: no binding
PC-3 = experiment: Flow cytometry binding to cells; set-up: species or system Human; key to the marks not given beside the values; settings: 1 µM biotinylated peptide
primary macrophages 7d = experiment: Flow cytometry binding to cells; settings: 1 µM biotinylated peptide; further: key: ++: Strong binding; +: medium binding; +/−: weak binding; −: no binding
A431 = experiment: Flow cytometry binding to cells; set-up: species or system Human; key to the marks not given beside the values; settings: 1 µM biotinylated peptide
HeLa = tested on: HeLa; set-up: key to the marks not given beside the values; settings: Table S1; human; flow cytometry, 1 µM biotinylated peptide, 2 mM MnCl2, on ice
PC-3 or A431 cells = settings: 37 °C, streptavidin staining, flow cytometry
Procedure: washed as described above and then re-suspended in Eagle’s minimum essential medium
incubated on ice or at 37°C. At different time points after washing 50 µl samples were taken
and added to 50 µl of Streptavidin- PerCP-Cy5.5 (diluted 1:200), incubated on ice f or 15 min,
washed with PBS, and analyzed in PBS with Hoechst solution. Fluorescent signals were
plotted against time between washing and streptavidin addition.
over time after incubation on ice and at 37°C.
labeled streptavidin as described previously f or flow cytometry assays.

primary monocytes = experiment: Flow cytometry binding to cells; settings: 1 µM biotinylated peptide; further: key: ++: Strong binding; +: medium binding; +/−: weak binding; −: no binding
E0771 = settings: Table S1; mouse; flow cytometry, 1 µM biotinylated peptide, 2 mM MnCl2, on ice
Procedure: as §26, §27, §28, §29, §30, §31, §32, §33, §34, §35, §36, §37
(§38) least 1x10^4 cells per sample were counted). Evaluations were performed using FloJo software. […]
(§39) indicated cases the geometrical mean f luorescence was recorded. […]
(§40) which half-maximum binding intensity was reached (KD) was calculated using Origin 9.0 […]

4T1 = settings: Table S1; mouse; flow cytometry, 1 µM biotinylated peptide, 2 mM MnCl2, on ice
Procedure: as §26, §27, §28, §29, §30, §31, §32, §33, §34, §35, §36, §37, §38, §39, §40

HUVEC = experiment: Flow cytometry binding to cells; set-up: species or system Human; settings: 1 µM biotinylated peptide
primary leukocytes = experiment: Flow cytometry binding to cells; settings: 1 µM biotinylated peptide; further: key: ++: Strong binding; +: medium binding; +/−: weak binding; −: no binding
GPC-16 = experiment: Flow cytometry binding to cells; set-up: key to the marks not given beside the values; settings: 1 µM biotinylated peptide
L-929 = settings: Table S1; mouse; flow cytometry, 1 µM biotinylated peptide, 2 mM MnCl2, on ice
Procedure: as §26, §27, §28, §29, §30, §31, §32, §33, §34, §35, §36, §37, §38, §39, §40

[1] = tested on: primary macrophages 7 days; experiment: Flow cytometry binding to cells; settings: 1 µM biotinylated peptide; on binding to macrophages 7 days: key: ++: strong binding; +: m edium binding; +/-: weak or heterogeneous binding; -: no binding
H MC-1 = experiment: Flow cytometry binding to cells; settings: Table S1, human, 1 µM biotinylated peptide, 2 mM MnCl2, on ice; further: key: ++: Strong binding; +: medium binding; +/−: weak binding; −: no binding
primary lymphocytes = experiment: Flow cytometry binding to cells; settings: 1 µM biotinylated peptide; further: key: ++: Strong binding; +: medium binding; +/−: weak binding; −: no binding
K562 = experiment: Flow cytometry binding to cells; set-up: species or system Human; settings: 1 µM biotinylated peptide; further: key: ++: Strong binding; +: medium binding; +/−: weak binding; −: no binding
MDA-MB-231 = experiment: Flow cytometry binding to cells; set-up: key: ++: strong binding; +: m edium binding; +/-: weak or heterogeneous binding; -: no binding; settings: Table S1, human, 1 µM biotinylated peptide, 2 mM MnCl2, on ice
integrin α3 = target: T1, integrin α3 (Homo sapiens, UniProt P26006); experiment: Displacement of anti-CD49c-PE conjugate (flow cytometry); type: binding; settings: increasing peptide concentrations, 2 mM MnCl2, 30 min on ice, flow cytometry (PE channel)
T1 construct: endogenous in cells
T1 sequence (P26006 33-872 limits assumed): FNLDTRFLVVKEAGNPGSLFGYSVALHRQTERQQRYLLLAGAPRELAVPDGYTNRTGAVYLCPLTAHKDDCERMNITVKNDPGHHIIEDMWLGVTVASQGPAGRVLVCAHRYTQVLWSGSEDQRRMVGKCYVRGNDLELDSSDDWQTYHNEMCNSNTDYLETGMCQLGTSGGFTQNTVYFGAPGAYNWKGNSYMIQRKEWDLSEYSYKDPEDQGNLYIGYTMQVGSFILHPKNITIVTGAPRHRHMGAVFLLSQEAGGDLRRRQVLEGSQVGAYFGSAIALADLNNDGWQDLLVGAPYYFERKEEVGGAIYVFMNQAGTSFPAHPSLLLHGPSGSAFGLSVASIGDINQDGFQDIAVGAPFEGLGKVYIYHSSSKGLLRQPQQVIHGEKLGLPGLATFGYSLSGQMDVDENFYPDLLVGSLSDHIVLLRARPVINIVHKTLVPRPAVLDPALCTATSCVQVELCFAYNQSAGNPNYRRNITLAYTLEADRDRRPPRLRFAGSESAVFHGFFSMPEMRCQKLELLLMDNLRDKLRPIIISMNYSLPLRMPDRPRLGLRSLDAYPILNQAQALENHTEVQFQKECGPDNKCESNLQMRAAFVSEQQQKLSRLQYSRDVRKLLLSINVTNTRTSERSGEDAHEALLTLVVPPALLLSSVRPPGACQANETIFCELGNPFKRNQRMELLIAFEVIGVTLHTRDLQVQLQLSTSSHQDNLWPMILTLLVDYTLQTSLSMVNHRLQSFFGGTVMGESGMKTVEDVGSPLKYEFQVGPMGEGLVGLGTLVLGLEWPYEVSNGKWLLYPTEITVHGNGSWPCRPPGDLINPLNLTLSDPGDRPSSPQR
T1 sequence (P26006 876-1051 partner limits assumed): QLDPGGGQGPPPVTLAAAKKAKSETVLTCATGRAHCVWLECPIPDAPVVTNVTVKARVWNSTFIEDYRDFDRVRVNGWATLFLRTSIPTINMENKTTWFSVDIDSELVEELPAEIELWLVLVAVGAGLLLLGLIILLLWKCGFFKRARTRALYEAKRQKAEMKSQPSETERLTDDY
T1 sequence (P05556 21-798 partner): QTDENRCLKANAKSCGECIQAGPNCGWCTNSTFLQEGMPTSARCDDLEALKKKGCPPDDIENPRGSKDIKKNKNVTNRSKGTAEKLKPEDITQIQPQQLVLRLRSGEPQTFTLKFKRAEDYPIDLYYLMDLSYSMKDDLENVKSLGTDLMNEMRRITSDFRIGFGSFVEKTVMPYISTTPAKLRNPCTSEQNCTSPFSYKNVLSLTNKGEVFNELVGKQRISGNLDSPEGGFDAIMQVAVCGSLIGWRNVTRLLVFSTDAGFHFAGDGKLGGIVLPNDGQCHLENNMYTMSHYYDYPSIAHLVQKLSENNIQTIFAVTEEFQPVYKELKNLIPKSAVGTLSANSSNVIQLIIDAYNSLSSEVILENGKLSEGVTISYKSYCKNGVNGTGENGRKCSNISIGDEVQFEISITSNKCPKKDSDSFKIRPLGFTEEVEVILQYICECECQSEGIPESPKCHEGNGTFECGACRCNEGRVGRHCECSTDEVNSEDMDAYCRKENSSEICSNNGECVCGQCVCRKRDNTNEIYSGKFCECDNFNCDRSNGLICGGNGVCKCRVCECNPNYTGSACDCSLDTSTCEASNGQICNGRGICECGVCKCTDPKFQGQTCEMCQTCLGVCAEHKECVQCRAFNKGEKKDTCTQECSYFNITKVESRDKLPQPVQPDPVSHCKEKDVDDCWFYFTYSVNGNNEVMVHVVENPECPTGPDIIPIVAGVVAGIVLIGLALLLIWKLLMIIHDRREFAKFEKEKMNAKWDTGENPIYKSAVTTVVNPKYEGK

[2] = 2 mM MnCl2, 30 min on ice, streptavidin-PerCP-Cy5.5
[3] = Table S1, human, 2 mM MnCl2, on ice
[4] = human, 2 mM MnCl2, 30 min on ice, streptavidin-PerCP-Cy5.5
[5] = Table S1, mouse, 2 mM MnCl2, on ice
[6] = mouse, 2 mM MnCl2, 30 min on ice, streptavidin-PerCP-Cy5.5

Compound: CSCC[C@H](NC=O)C(=O)N[C@@H](CC(C)C)C(=O)N[C@@H](Cc1ccccc1)C(=O)NCC(=O)NCC(=O)N[C@@H](CCCCNC(=O)CCOCCOCCOCCOCCOCCOCCOCCOCCOCCOCCOCCOCCOCCOCCOCCOCCOCCOCCOCCOCCOCCOCCOCCOCCOCCOCCOCCOCCN)C(=O)N[C@@H](CCCCNC(=O)CCOCCOCCOCCOCCOCCOCCOCCOCCOCCOCCOCCOCCOCCOCCOCCOCCOCCOCCOCCOCCOCCOCCOCCOCCOCCOCCOCCOCCN)C(=O)O [F1-2PEG] (For-MLFGGK(PEG28)K(PEG28)-OH)
- loss of potency for neutrophil activation (superoxide production) when linked to the PEG chains (human granulocytes): two
- immune activation in mice (mice): less potent immune activators
- loss of potency to induce chemotaxis when linked to the PEG chains (human leukocytes): two
- immune activation in guinea pigs (guinea pigs): less potent immune activators

Compound: CC[C@H](C)[C@H](NC(=O)[C@H](CCSC)NC(=O)CCCC[C@@H]1SC[C@@H]2NC(=O)N[C@@H]21)C(=O)N[C@@H](Cc1ccccc1)C(=O)N[C@@H](CC(C)C)C(=O)NCC(=O)NCC(=O)N[C@@H](CCCCNC(=O)CCOCCOCCOCCOCCOCCOCCOCCOCCOCCOCCOCCOCCOCCOCCOCCOCCOCCOCCOCCOCCOCCOCCOCCOCCOCCOCCOCCOCCNC(=O)[C@H]1CSSC[C@@H](N)C(=O)N[C@H](CC(=O)O)C(=O)NCC(=O)N[C@@H](Cc2ccc(O)c([N+](=O)[O-])c2)C(=O)NCC(=O)N2C[C@H](O)C[C@H]2C(=O)N[C@@H](CC(N)=O)C(=O)N1)C(=O)N[C@@H](CCCCNC(=O)CCOCCOCCOCCOCCOCCOCCOCCOCCOCCOCCOCCOCCOCCOCCOCCOCCOCCOCCOCCOCCOCCOCCOCCOCCOCCOCCOCCOCCNC(=O)[C@H]1CSSC[C@@H](N)C(=O)N[C@H](CC(=O)O)C(=O)NCC(=O)N[C@@H](Cc2ccc(O)c([N+](=O)[O-])c2)C(=O)NCC(=O)N2C[C@H](O)C[C@H]2C(=O)N[C@@H](CC(N)=O)C(=O)N1)C(=O)O [Biotin-Y9] (I: H-[dC][dD]G[Tyr(3-NO2)]G[Hyp]N[dC][PEG28] / II: H-[dC][dD]G[Tyr(3-NO2)]G[Hyp]N[dC][PEG28] / III: Biotin-MIFLGGKK-OH; disulfide I:1-I:8, II:1-II:8; amide I:C-III:7, II:C-III:8)
- binding to U-87MG (U-87MG): ++
- binding to NIH-3T3 (NIH-3T3; Table S1, 2 mM MnCl2, on ice): +
- binding to NIH-3T3 (NIH-3T3; [2]): +
- binding to HT-29 (HT-29): ++
- binding to fresh granulocytes (primary granulocytes; [3]): -
- binding to primary granulocytes (primary granulocytes; [4]): −
- binding to PC-3 (PC-3; [2]): ++
- binding to PC-3 (PC-3; [3]): ++
- binding to macrophages 7d (primary macrophages 7d; [5]): -
- binding to primary macrophages 7d (primary macrophages 7d; [6]): −
- binding to A431 (A431; [2]): ++
- binding to A431 (A431; [3]): ++
- binding to HeLa (HeLa): ++
- t1/2 on cell membranes (PC-3 or A431 cells): at least 15 minutes
- binding to fresh monocytes (primary monocytes; [3]): -
- binding to primary monocytes (primary monocytes; [4]): −
- binding to E0771 (E0771): +
- binding to 4T1 (4T1): ++
- binding to HUVEC (HUVEC; [2]): ++
- binding to HUVEC (HUVEC; [3]): ++
- binding to leukocytes (primary leukocytes; [5]): -
- binding to primary leukocytes (primary leukocytes; [6]): −
- binding to GPC-16 (GPC-16; Table S1, guinea pig, 2 mM MnCl2, on ice): ++
- binding to GPC-16 (GPC-16; guinea pig, 2 mM MnCl2, 30 min on ice, streptavidin-PerCP-Cy5.5): ++
- binding to L-929 (L-929): -
- binding to macrophages 7 days [1, 3]: +/-
- binding to primary macrophages 7 days [1, 4]: +/−
- binding to H MC-1 (H MC-1): -
- binding to fresh lymphocytes (primary lymphocytes; [3]): -
- binding to primary lymphocytes (primary lymphocytes; [4]): −
- binding to K562 (K562; [2]): −
- binding to K562 (K562; [3]): -
- binding to MDA-MB-231 (MDA-MB-231): ++

- displacement of anti-CD49c-PE conjugate (integrin α3): competes
Compound: NC(=O)C[C@@H]1NC(=O)[C@@H]2C[C@@H](O)CN2C(=O)CNC(=O)[C@H](Cc2ccc(O)c([N+](=O)[O-])c2)NC(=O)CNC(=O)[C@@H](CC(=O)O)NC(=O)[C@H](N)CSSC[C@H](C(=O)O)NC1=O [B9] (H-[dC][dD]G[Tyr(3-NO2)]G[Hyp]N[dC]-OH; disulfide 1-8)
